From patent US6759403B2, “Metalloporphyrins and their uses as radiosensitizers for radiation therapy” (Brookhaven Science Associates, LLC, priority 2001, dated 2004)
Read-outs that look alike come from different tables or passages of the source.

Experiments:
malignant brain tumors = conditions: clinical use of BPA; cited from earlier work
EMT-6 mammary carcinomas [1] = test: CuTCPH boron biodistribution in EMT-6 tumor-bearing mice (prior results, Rad. Res. 155, 603-610, 2001); type: in vivo, BALB/c mice
Description: There is a larger vascular system surrounding the dorsal thorax compared with the leg, which may be a factor. However, in the case of CuTCPH, the boron concentration was 30% higher in leg tumors compared to back tumors. Normalizing to the slightly higher dose of the first study, the tumor boron concentration should be about 29 and 15 μg/g at 2d and 5d, respectively, which are still low. Studies are underway to repeat these experiments.
The biodistribution properties for CuTCPBr are similar to other lipophilic tetracarboranyl tetraphenylporphyrins studied previously, particularly the results for CuTCPH which were reported in Rad. Res. 155, 603-610, 2001 and are listed in columns four and five of Table 4. The CuTCPH results were based on two groups of seven (7) BALB/c mice which were given 180 μg/gbw CuTCPH in six intraperitoneal injections over 2 days. The first group of mice was euthanized two days after the last injection and the second group four days after the last injection. The boron concentrations in different tissues were then measured.

[2] = tested on: subcutaneous 9L gliosarcomas; test: Boron biodistribution after intravenous infusion in rat 9L gliosarcoma model (Examples 6 and 7); type: in vivo, Fischer 344 rats
Description: This example used the experimental rat 9L gliosarcoma model and the protocol used to administer porphyrins by intravenous infusion that were reported in J. NeuroOncol, 52, 111-117, 2001. Six (6) male Fischer 344 rats bearing subcutaneous 9L gliosarcomas were infused intravenously with CuTCPBr at a total dose of 220 μg/gbw over 48 hours. Tumor and blood were sampled from each at zero, one, two and three days after the end of infusion and the boron concentrations measured. In this example, the biodistribution of CuTCPBr was compared to CuTCPH. A group of six (6) male Fischer 344 rats bearing subcutaneous 9L gliosarcomas were infused intravenously with CuTCPBr at a total dose of 220 μg/gbw over 48 hours. A second group of four (4) male Fischer 344 rats bearing subcutaneous 9L gliosarcomas were infused intravenously with CuTCPH at a total dose of 195 μg/gbw. over 48 hours. Boron concentrations in tissues from both groups of rats were taken three days after the end of infusion. The results for the CuTCPBr group of rats are listed in column 2 of Table 6 and the results for the CuTCPH group of rats are listed in column 4 of Table 6. To account for the difference in porphyrin dose (195 μg/gbw for CuTCPH versus 220 μg/gbw for CuTCPBr) and the difference in % boron in each porphyrin (31.8% for CuTCPH versus 21.7 for CuTCPBr), the boron concentrations in tissues from rats given CuTCPBr were normalized so that they would be equivalent to the boron concentrations of rats given CuTCPH. This was done by multiplying the boron concentrations in the CuTCPBr group of rats by the CuTCPBr to CuTCPH boron dose ratio of 1.3. The normalized boron concentrations for the CuTCPBr group of rats are listed in column 3 of Table 6.

[3] = tested on: subcutaneous 9L gliosarcomas; test: CuTCPH dose increase and tumor boron concentration in rats with 9L gliosarcomas; type: in vivo, Fischer 344 rats
Text: Toxicity is the critical factor, and since no toxicity was observed, the dose can be increased to achieve tumor boron concentrations higher than those in Examples 2 and 3.

EMT-6 mammary carcinomas [4] = conditions: 180 μg/gbw CuTCPH, 6 ip injections over 2 days, cited from earlier work
[5] = 195 μg/gbw CuTCPH (61.8 μg B/gbw) iv over 48 hours, 3 days after end of infusion

## N[C@@H](Cc1ccc(B(O)O)cc1)C(=O)O [BPA, p-boronophenylalanine]
Malignant brain tumors
  blood boron concentration relative to that found in tumor: approximately one-third
  brain boron concentration relative to that found in tumor: approximately one-third
  chemical toxicity associated with usage: not eliciting any chemical toxicity

## copper tetracarboranylmethoxyphenylporphyrin [CuTCPH]
EMT-6 mammary carcinomas [1]; 180 μg/gbw CuTCPH
  decrease of liver boron from two to four days: 5%
EMT-6 mammary carcinomas [1]; CuTCPH, leg versus back tumors
  boron concentration higher in leg tumors compared to back tumors: 30%
[2]; [5]
  Boron Concentration, Brain: 3.2 (1.4) μg/g
  Boron Concentration, Kidney: 16 (2) μg/g
  Boron Concentration, Lacrimal Gland: 45 (11) μg/g
  Boron Concentration, Liver: 638 (53) μg/g
  Boron Concentration, Lung: 83 (12) μg/g
  Boron Concentration, Lymph Nodes: 284 (68) μg/g
  Boron Concentration, Parotid Gland: 125 (26) μg/g
  Boron Concentration, Spleen: 832 (169) μg/g
  Boron Concentration, Tongue: 47 (11) μg/g
  Boron Concentration, Tumor: 63 (23) μg/g
  Boron concentration, Ears: 17 (3) μg/g
[2]; rats, 220 μg/gbw CuTCPBr or 195 μg/gbw CuTCPH iv over 48 hours
  Toxicity: does not appear to be a major problem
[3]; CuTCPH total dose 195 mg/kg body weight
  tumor boron concentration, median: 64 µg/g
[3]; CuTCPH total dose 450 mg/kg body weight
  tumor boron concentration, median: 117 µg/g
EMT-6 mammary carcinomas [4]; after 2 days
  Boron Concentration, Blood: 0 (0) μg/g
  Boron Concentration, Brain: 0.2 (0.1) μg/g
  Boron Concentration, Ears (skin): 8.4 (2.1) μg/g
  Boron Concentration, Liver: 562 (79) μg/g
  Boron Concentration, Tumor: 62 (10) μg/g
EMT-6 mammary carcinomas [4]; after 4 days
  Boron Concentration, Blood: 0.3 (0.1) μg/g
  Boron Concentration, Brain: 0.7 (0.3) μg/g
  Boron Concentration, Ears (skin): 14 (2.6) μg/g
  Boron Concentration, Liver: 534 (124) μg/g
  Boron Concentration, Tumor: 71 (9) μg/g
